Experimental findings from patent publication US11485740B2, “Inhibitors of TRPC6” (Boehringer Ingelheim International GmbH, priority 2018, dated 2022) are described below.

In the experiment the target is T1, human TRPC6 (Homo sapiens, UniProt Q9Y210).
T1 construct: expressed in transfected cells
T1 sequence (Q9Y210 1-931): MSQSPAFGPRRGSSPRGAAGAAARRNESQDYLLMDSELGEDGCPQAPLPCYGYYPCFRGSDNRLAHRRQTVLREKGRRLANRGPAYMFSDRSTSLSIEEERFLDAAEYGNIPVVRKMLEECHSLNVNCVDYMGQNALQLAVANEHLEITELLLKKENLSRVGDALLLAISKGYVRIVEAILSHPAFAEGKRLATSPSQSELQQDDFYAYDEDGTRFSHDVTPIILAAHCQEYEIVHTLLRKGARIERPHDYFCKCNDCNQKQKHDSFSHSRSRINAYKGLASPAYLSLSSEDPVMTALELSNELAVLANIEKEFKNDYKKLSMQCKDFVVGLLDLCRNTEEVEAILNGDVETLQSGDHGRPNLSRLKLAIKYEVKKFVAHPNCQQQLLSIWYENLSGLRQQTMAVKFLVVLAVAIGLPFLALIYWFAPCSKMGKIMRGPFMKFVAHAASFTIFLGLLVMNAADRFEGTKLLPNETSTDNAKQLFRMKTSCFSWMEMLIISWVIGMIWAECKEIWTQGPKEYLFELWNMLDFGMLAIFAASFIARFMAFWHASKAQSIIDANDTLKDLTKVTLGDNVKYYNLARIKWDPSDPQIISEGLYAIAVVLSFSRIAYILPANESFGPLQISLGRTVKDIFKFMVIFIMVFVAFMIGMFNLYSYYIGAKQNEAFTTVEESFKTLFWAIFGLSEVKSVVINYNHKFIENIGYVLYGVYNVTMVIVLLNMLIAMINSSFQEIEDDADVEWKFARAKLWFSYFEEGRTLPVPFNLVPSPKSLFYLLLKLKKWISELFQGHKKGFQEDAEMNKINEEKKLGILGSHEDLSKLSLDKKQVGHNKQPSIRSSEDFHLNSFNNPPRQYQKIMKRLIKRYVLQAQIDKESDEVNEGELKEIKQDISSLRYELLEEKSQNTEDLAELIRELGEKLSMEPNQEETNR
Description: High throughput screening assay: Fluo4/AM calcium fluorescence in HEK293/TREx cells expressing human TRPC6, agonist GSK1702934A (single concentration 10 μM and IC50 curves). The class given is cell-based. As to conditions: antagonist effect against human TRPC6, 7 concentrations 20 μM to 0.027 μM, triplicate. From the text:
High Throughput Screening Assay
This screening assay measures human TRPC6 (transient receptor potential cation channel, subfamily C, member 6) ion channel activation via addition either of the commercially available DAG ligand analogue OAG (1-oleoyl-2-acetyl-sn-glycerol) or of the TRPC6 agonist 1-[1-(4,5,6,7,8-pentahydrocyclohepta[2,1-d]thiophen-2-ylcarbonyl)-4-piperidyl]-3-hydrobenzimidazol-2-one (GSK1702934A). The assay utilizes a fluorescent calcium sensor 4-(6-Acetoxymethoxy-2,7-difluoro-3-oxo-9-xanthenyl)-4′-methyl-2,2′-(ethylenedioxy)dianiline-N,N,N′,N′-tetraacetic acid tetrakis(acetoxymethyl) ester (Fluo4/AM) dye from Molecular Devices. Changes (increases) in intracellular calcium concentration as measured by the fluorescent signal increase provide a measurement of channel activity.
The commercially available HEK293/TREx line (Invitrogen) was stably transfected with a human TRPC6 construct and screened by conventional calcium imaging to find clones with human TRPC6 expression following stimulation with 1 μg/ml tetracycline. These cells were maintained in the growth medium recommended by the manufacturer supplemented with 100 μg/ml hygromycin to promote retention of the human TRPC6 construct. After growing to near confluency, cells were plated at a density of ^˜35,000 cells/well in 384 well CellBind plates (Corning) in the presence of 1 μg/ml tetracycline, and allowed to grow for 20-30 hrs. A nearly confluent monolayer resulted. Growth media was removed from the wells and cells were then loaded with […] Fluo4/AM diluted in Ringer's Solution (6.5 g NaCl, 0.42 g KCl, 0.25 g CaCl2) and 0.2 g of sodium bicarbonate; pH 7.4) supplemented with 1% Pluronic F-127 to a final concentration of 0.5 μM and incubated for 60 min, at room temperature. Dye solution was then removed from the cells by inverting plates with a sharp flick, and replaced with 25 μl Ringer's. Following ^˜0.5 hour for recovery from loading, cells were assayed using the Hamamatsu FDSS 6000 system, which permitted illumination at 485 nm. Frames were acquired at a rate of 0.2 Hz. During the assay, the plates were continuously vortexed, with pipette mixing of wells following addition of each reagent. For the screening assay, 26 μl of a diluted compound stock (at 50 μM) was added to each well for 2 minutes following the collection of a short (4 frame) baseline. 13 μl of agonist solution consisting of 125 nM GSK1702934A diluted in high-Ca2+Ringer solution (containing 90 mM Ca2+) was then added to each well, achieving a final concentration of 20 mM Ca2+ and 10 μM test compound. Data was collected for ^˜3 minutes following addition of high Ca2+Ringer. The fluorescent intensity observed at a particular timepoint for each well was divided by the initial fluorescent intensity for that well and the overall response was determined by averaging the resulting fluorescent ratio of the last 4 frames acquired during the experiment excepting the final frame. Negative and Positive controls were included on each plate. Negative controls wells consisted of HEK293/TREx TRPC6 cells exposed to assay buffer and agonist solution, but no test compound. Positive control consisted of wells consisted of HEK293/TREx TRPC6 cells exposed to 25 μM 3-[(2-chlorophenoxy)methyl]phenyl piperidyl ketone (Chembridge) diluted in Ringer's solution and agonist solution. These controls defined zero percent and 100 percent block respectively, and intensity of each well was normalized to these values.
Compounds were tested in triplicate at all concentrations. Standard software was used to fit IC50 curves.
For the molecule `COc1cc(C(=O)N2CCC(c3ccc(N)nn3)CC2)ccc1-c1ccc(OC2CC2)nc1` [Compound 73, [4-(6-Amino-pyridazin-3-yl)-piperidin-1-yl]-[4-(6-cyclopropoxy-pyridin-3-yl)-3-methoxy-phenyl]-methanone], the IC50 came out at 510 nM.
The value for `COc1cc(C(=O)N2CCC(c3ccc(N)nn3)CC2)ncc1-c1ccc(OC2CCC2)nc1` [Compound 49, [4-(6-Amino-pyridazin-3-yl)-piperidin-1-yl]-(6′-cyclobutoxy-4-methoxy-[3,3′]bipyridinyl-6-yl)-methanone] was 140 nM.
As for `COc1cc(C(=O)N2CCC(c3ccc(N)nn3)CC2)ncc1-c1ccc(OCC2CC2(F)F)nc1` (stereo not drawn) [Compound 111, [4-(6-Amino-pyridazin-3-yl)-piperidin-1-yl]-[6′-(2,2-difluoro-cyclopropylmethoxy)-4-methoxy-[3,3′]bipyridinyl-6-yl]-methanone], the figure is 440 nM.
As for `COc1cc(C(=O)N2CCN(c3cnc(N)cc3OC)C[C@@H]2[C@@H](C)O)ncc1-c1ccc(C(F)(F)F)cc1` [Compound 106, [(R)-4-(6-Amino-4-methoxy-pyridin-3-yl)-2-((R)-1-hydroxy-ethyl)piperazin-1-yl]-[4-methoxy-5-(4-trifluoromethyl-phenyl)-pyridin-2-yl]-methanone], the figure is 440 nM; as for `COc1cc(C(=O)N2CCC(c3cnc(N)cc3OC)CC2)ncc1-c1ccc(C(F)(F)F)cc1` [Compound 84, (6-Amino-4-methoxy-3′,4′,5′,6′-tetrahydro-2′H-[3,4′]bipyridinyl-1′-yl)-[4-methoxy-5-(4-trifluoromethyl-phenyl)-pyridin-2-yl]-methanone], 130 nM.
As to `COc1cc(-c2cnc(C(=O)N3CCC(c4ccc(N)nn4)CC3)cc2OC)ccc1F` [Compound 14, [4-(6-Amino-pyridazin-3-yl)-piperidin-1-yl]-[5-(4-fluoro-3-methoxy-phenyl)-4-methoxy-pyridin-2-yl]-methanone], the IC50 stood at 3300 nM.
As to `COc1cc(C(=O)N2CCC(c3nnc(N)cc3OC)CC2)ncc1-c1ccc(C(F)(F)F)cc1` [Compound 85, [4-(6-Amino-4-methoxy-pyridazin-3-yl)-piperidin-1-yl]-[4-methoxy-5-(4-trifluoromethyl-phenyl)-pyridin-2-yl]-methanone], the concentration for half-maximal inhibition (IC50) was 350 nM.
With `CCc1cc(C(=O)N2CCC(c3ccc(N)nn3)CC2)ccc1-c1ccc(C(F)(F)F)cc1` [Compound 70, [4-(6-Amino-pyridazin-3-yl)-piperidin-1-yl]-(2-ethyl-4′-trifluoromethyl-biphenyl-4-yl)-methanone], the IC50 was 1400 nM.
The value for `COc1cc(C(=O)N2CCC(c3ccc(N)nn3)CC2)ccc1-c1ccc(OCC2CC2(C)C)nc1` (stereo not drawn) [Compound 77, [4-(6-Amino-pyridazin-3-yl)-piperidin-1-yl]-{4-[6-(2,2-dimethyl-cyclopropylmethoxy)-pyridin-3-yl]-3-methoxy-phenyl}-methanone] was 160 nM; that for `COc1cc(C(=O)N2CCN(c3ccc(N)nc3)[C@H](C)C2)ccc1-c1ccc(C(F)(F)F)cc1` [Compound 114, [(R)-4-(6-Amino-pyridin-3-yl)-3-methyl-piperazin-1-yl]-(2-methoxy-4′-trifluoromethyl-biphenyl-4-yl)-methanone] was 67 nM.
The value for `COc1cc(C(=O)N2CCN(c3cnc(N)cc3OC)C[C@H]2CO)ncc1-c1ccc(F)cc1` [Compound 102, [(S)-4-(6-Amino-4-methoxy-pyridin-3-yl)-2-hydroxymethyl-piperazin-1-yl]-[5-(4-fluoro-phenyl)-4-methoxy-pyridin-2-yl]-methanone] was 840 nM; that for `Nc1ccc(C2CCN(C(=O)c3ccc(-c4ccc(F)cc4)cc3)CC2)nn1` [Compound 7, [4-(6-Amino-pyridazin-3-yl)-piperidin-1-yl]-(4′-fluoro-biphenyl-4-yl)-methanone] was 3400 nM; that for `Nc1ccc(C2CCN(C(=O)c3ccc(-c4ccc(Cl)cc4)cc3)CC2)nn1` [Compound 4, [4-(6-Amino-pyridazin-3-yl)-piperidin-1-yl]-(4′-chloro-biphenyl-4-yl)-methanone] was 1900 nM.
As for `COc1cc(C(=O)N2CCC(c3ccc(N)nn3)CC2)ccc1-c1ccc(OCC2CC2)nc1` [Compound 82, [4-(6-Amino-pyridazin-3-yl)-piperidin-1-yl]-[4-(6-cyclopropylmethoxy-pyridin-3-yl)-3-methoxy-phenyl]-methanone], the figure is 340 nM.
As for `COC[C@H]1CN(c2cnc(N)cc2OC)CCN1C(=O)c1cc(OC)c(-c2ccccc2)cn1` [Compound 100, [(R)-4-(6-Amino-4-methoxy-pyridin-3-yl)-2-methoxymethyl-piperazin-1-yl]-(4-methoxy-5-phenyl-pyridin-2-yl)-methanone], the IC50 worked out at 230 nM.
As for `COc1cc(C(=O)N2CCC(c3ccc(N)nn3)CC2)ncc1-c1ccc(OC(F)F)cc1` [Compound 39, [4-(6-Amino-pyridazin-3-yl)-piperidin-1-yl]-[5-(4-difluoromethoxy-phenyl)-4-methoxy-pyridin-2-yl]-methanone], the figure is 320 nM.
As for `COc1cc(C(=O)N2CCN(c3cnc(N)cc3C)C[C@@H]2CO)ncc1-c1ccc(F)cc1` [Compound 93, [(R)-4-(6-Amino-4-methyl-pyridin-3-yl)-2-hydroxymethyl-piperazin-1-yl]-[5-(4-fluoro-phenyl)-4-methoxy-pyridin-2-yl]-methanone], the figure is 27 nM; as for `COc1cc(C(=O)N2CCC(c3ccc(N)nn3)CC2)ccc1-c1ccc(OCC2(CF)CC2)nc1` [Compound 80, [4-(6-Amino-pyridazin-3-yl)-piperidin-1-yl]-{4-[6-(1-fluoromethyl-cyclopropylmethoxy)-pyridin-3-yl]-3-methoxy-phenyl}-methanone], 130 nM; as for `COc1cccc(-c2ccc(C(=O)N3CCC(c4ccc(N)nn4)CC3)cc2)c1` [Compound 9, [4-(6-Amino-pyridazin-3-yl)-piperidin-1-yl]-(3′-methoxy-biphenyl-4-yl)-methanone], 5400 nM.
Take `COc1cc(C(=O)N2CCC(c3ccc(N)nn3)CC2)ccc1-c1ccc(OC(F)(F)F)cc1` [Compound 56, [4-(6-Amino-pyridazin-3-yl)-piperidin-1-yl]-(2-methoxy-4′-trifluoromethoxy-biphenyl-4-yl)-methanone]: the IC50 was 910 nM.
As for `CC[C@H](C)Oc1ccc(-c2ccc(C(=O)N3CCC(c4ccc(N)nn4)CC3)cc2OC)cn1` [Compound 75, [4-(6-Amino-pyridazin-3-yl)-piperidin-1-yl]-{4-[6-((S)-sec-butoxy)-pyridin-3-yl]-3-methoxy-phenyl}-methanone], the figure is 91 nM.
